{"source": "patent US20250197392A1", "about": "“CRYSTALLINE FORMS OF AN INHIBITOR OF THE MENIN/MLL INTERACTION” (JANSSEN PHARMACEUTICA NV, priority 2022, published 2025)", "key": {"[1]": {"molecular_target": "Menin/MLL (terbium chelate-labeled menin, FITC-MBM1 peptide) (Homo sapiens (Human), UniProt O00255)", "sequence (O00255 other isoform, or with tags, fused parts or gaps)": "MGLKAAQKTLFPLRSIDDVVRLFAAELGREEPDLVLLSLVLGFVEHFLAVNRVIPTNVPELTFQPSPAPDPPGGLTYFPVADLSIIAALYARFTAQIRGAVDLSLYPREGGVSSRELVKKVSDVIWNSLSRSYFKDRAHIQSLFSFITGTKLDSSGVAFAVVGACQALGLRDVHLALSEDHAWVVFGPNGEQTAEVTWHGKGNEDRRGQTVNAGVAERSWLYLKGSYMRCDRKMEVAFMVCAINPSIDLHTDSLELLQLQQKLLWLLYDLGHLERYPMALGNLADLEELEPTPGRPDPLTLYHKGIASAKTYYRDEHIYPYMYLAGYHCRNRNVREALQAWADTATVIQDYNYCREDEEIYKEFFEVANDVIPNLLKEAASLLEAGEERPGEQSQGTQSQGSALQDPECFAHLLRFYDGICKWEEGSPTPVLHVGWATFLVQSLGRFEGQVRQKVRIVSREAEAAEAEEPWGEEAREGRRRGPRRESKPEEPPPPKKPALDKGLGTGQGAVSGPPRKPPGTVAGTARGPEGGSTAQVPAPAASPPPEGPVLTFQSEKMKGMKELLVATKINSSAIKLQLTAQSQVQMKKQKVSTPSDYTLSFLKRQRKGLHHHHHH", "assay": "Menin/MLL homogenous time-resolved fluorescence (HTRF) assay", "assay_type": "binding", "details": "30 min incubation of compound with labeled menin", "description": "To an untreated, white 384-well microtiter plate was added 40 nL 200× test compound in DMSO and 4 μL 2× terbium chelate-labeled menin (vide infra for preparation) in assay buffer (40 mM Tris·HCl, pH 7.5, 50 mM NaCl, 1 mM DTT (dithiothreitol) and 0.05% Pluronic F-127). After incubation of test compound and terbium chelate-labeled menin for 30 min at ambient temperature, 4 μL 2×FITC-MBM1 peptide (FITC-β-alanine-[…]-NH2) (“FITC” means fluorescein isothiocyanate) in assay buffer was added, the microtiter plate centrifuged at 1000 rpm for 1 min and the assay mixtures incubated for 15 min at ambient temperature. The relative amount of menin-FITC-MBM1 complex present in an assay mixture is determined by measuring the homogenous time-resolved fluorescence (HTRF) of the terbium/FITC donor/acceptor fluorphore pair using an EnVision microplate reader (ex. 337 nm/terbium em. 490 nm/FITC em. 520 nm) at ambient temperature. The degree of fluorescence resonance energy transfer (the HTRF value) is expressed as the ratio of the fluorescence emission intensities of the FITC and terbium fluorophores (F^em 520 nm/F^em 490 nm). […]\nCompound potencies were determined by first calculating % inhibition at each compound concentration according to equation 1: […]"}, "MEIS1 mRNA expression": {"test_system": "MEIS1 mRNA expression", "assay": "MEIS1 mRNA expression assay (Quantigene Singleplex) in MOLM14 cells", "assay_type": "cell-based, human", "details": "48 hours incubation", "description": "MEIS1 mRNA expression upon treatment of compound was examined by Quantigene Singleplex assay (Thermo Fisher Scientific). This technology allows for direct quantification of mRNA targets using probes hybridizing to defined target sequences of interest and the signal is detected using a Multimode plate reader Envision (PerkinElmer). The MOLM14 cell line was used for this experiment. Cells were plated in 96-well plates at 3,750 cells/well in the presence of increasing concentrations of compounds. After incubation of 48 hours with compounds, cells were lysed in lysis buffer and incubated for 45 minutes at 55° C. Cell lysates were mixed with human MEIS1 specific capture probe or human RPL28 (Ribosomal Protein L28) specific probe as a normalization control, as well as blocking probes. Cell lysates were then transferred to the custom assay hybridization plate (Thermo Fisher Scientific) and incubated for 18 to 22 hours at 55° C. Subsequently, plates were washed to remove unbound materials followed by sequential addition of preamplifiers, amplifiers, and label probe. Signals (=gene counts) were measured with a Multimode plate reader Envision. IC50s were calculated by dose-response modelling using appropriate software. […] Fold changes were calculated by dividing the normalized values for the treated samples by the normalized values for the DMSO treated sample. […]"}, "MOLM14 cells": {"test_system": "MOLM14 cells", "assay": "Proliferation assay (spheroid assay) MOLM14", "assay_type": "cell-based, human", "details": "8 days, MLL-AF9 cell line; read-out: spheroid assay_MOLM14 IC50", "description": "(§1) The anti-proliferative effect of menin/MLL protein/protein interaction inhibitor test compounds was assessed in human leukemia cell lines. The cell line MOLM14 harbors a MLL translocation and expresses the MLL fusion protein MLL-AF9, respectively, as well as the wildtype protein from the second allele. OCI-AML3 cells that carry the NPM1c gene mutation were also tested. […] KO-52 was used as a control cell line containing two MLL (KMT2A) wildtype alleles in order to exclude compounds that display general cytotoxic effects.\n(§2) MOLM14 cells were cultured in RPMI-1640 (Sigma Aldrich) supplemented with 10% heat-inactivated fetal bovine serum (HyClone), 2 mM L-glutamine (Sigma Aldrich) and 50 μg/ml gentamycin (Gibco). […]\n(§3) In order to assess the anti-proliferative effects, 200 MOLM14 cells, 200 OCI-AML3 cells or 300 KO-52 cells were seeded in 200 μl media per well in 96-well round bottom, ultra-low attachment plates (Costar, catalogue number 7007). […] Spheroid like growth was measured in real-time by live-cell imaging (IncuCyteZOOM, Essenbio, 4× objective) acquiring images at day 8. Confluence (%) as a measure of spheroid size was determined using an integrated analysis tool.\n(§4) In order to determine the effect of the test compounds over time, the confluence in each well as a measure of spheroid size, was calculated. […]\n(§5) Absolute IC50 values were calculated as percent change in confluence as follows: […]"}, "OCI-AML3 cells": {"test_system": "OCI-AML3 cells", "assay": "Proliferation assay (spheroid assay) OCI-AML3", "assay_type": "cell-based, human", "details": "8 days, NPM1c mutated cell line; read-out: spheroid assay_OCI-AML3 IC50", "description": "as §1, §2, §3, §4, §5"}, "KO-52 cells": {"test_system": "KO-52 cells", "assay": "Proliferation assay (spheroid assay) KO-52 control cell line", "assay_type": "cell-based, human", "details": "8 days, MLL wildtype control cell line; read-out: spheroid assay_KO-52 IC50", "description": "as §1, §2, §3, §4, §5"}, "[2]": {"assay": "Dynamic vapor sorption (DVS) moisture sorption analysis", "assay_type": "physicochemical", "details": "after 2 cycles of vapor adsorption/desorption", "description": "The moisture sorption analysis (DVS) was performed using a ProUmid GmbH & Co. KG Vsorp Enhanced dynamic vapor sorption apparatus. The moisture profile was evaluated by monitoring vapor adsorption/desorption over the range of 0 to 90% relative humidity at 25° C. The sample weight equilibrium criteria were set at ≤0.010% change in 45 min with minimum and maximum time of acclimation at 50 min and 120 min, respectively. The moisture profile consisted of 2 cycles of vapor adsorption/desorption."}}}
{"smiles": "CC(=O)N1CCC(CN2CC[C@@H](Cc3cn(-c4ccc(F)cc4C(=O)N(C)C(C)C)c4cncc(C)c34)C2)CC1", "note": "[Compound 51a]", "values": [{"measurement": "IC50", "setting": "[1]", "result": 0.024, "unit": "nM"}, {"measurement": "IC50", "setting": "MEIS1 mRNA expression", "result": 11, "unit": "nM"}, {"measurement": "IC50", "setting": "MOLM14 cells", "result": 13, "unit": "nM"}, {"measurement": "IC50", "setting": "OCI-AML3 cells", "result": 70, "unit": "nM"}, {"measurement": "IC50", "setting": "KO-52 cells", "result": 1200, "unit": "nM"}, {"measurement": "solid-state form stability after DVS test (XRPD)", "setting": "[2]", "result": "No indication of a solid-state form change was observed"}]}
